The assay can be described thus: Oxygen Radical Absorbance Capacity (ORAC) antioxidant potential. As to conditions: ORAC test, test solutions at 100 micromolar; calculated from ORAC values relative to Trolox. On the procedure: Antioxidant potential is evaluated using the Oxygen Radical Absorbance Capacity (ORAC) protocol. ORAC is a chemical in-vitro method based on the hydrogen atom transfer (HAT) mechanism (see N. Re et al., Free Radical Biology & Medicine, 26 (9/10), 1231 (1997)). ORAC measures antioxidant inhibition of peroxyl radical induced oxidations and thus reflects classical radical chain breaking antioxidant activity by H atom transfer. In this assay, the peroxyl radical reacts with a fluorescent probe to form a non-fluorescent product. This is quantitated using a fluorescence measurement. Antioxidant capacity is determined by decreased rate and amount of product formed over time. This assay depends upon the free radical damage to the fluorescent probe resulting in the change in its fluorescence intensity. The change of fluorescence intensity is an indicator of the degree of free radical damage. In the presence of an antioxidant, the inhibition of free radical damage is reflected in higher fluorescence intensity and can be measured as antioxidant capacity against the free radicals. The uniqueness of ORAC assay is that the reaction is driven to completion. This allows calculation of the area under the curve (AUC) and gives an absolute quantitation of antioxidancy as opposed to relative measurements in many other assays.
As noted, the longer it takes to observe a decrease in fluorescence, the higher the antioxidant (AO) potential. From the AUC for a given antioxidant, the AUC for blank is subtracted to give its ORAC value. The concentration of AO needed to give the same AUC values as Trolox is calculated and used to represent the Trolox equivalent AO Capacity (TEAC). Trolox is ((±)-6-Hydroxy-2,5,7,8-tetramethylchromane-2-carboxylic acid, CAS #53188-07-1), and is used as an internal control. […]
The inventive stilbene-pendant nitrones in the ORAC test solutions were at a concentration of 100 micromolar, while the concentrations of Trolox, Vitamin C, Vitamin E, BHT, PBN+BHT, and VAL-IPHA were at 100 micromolar. The TEAC values calculated from the ORAC values are listed the Table 2.
On to `CC(C)(C)/[N+]([O-])=C/c1ccccc1` [PBN, 2-Phenyl-N-tert-butylnitrone], for which the “TEAC (Trolox equivalent AO Capacity)” value was “not very high”.

As to `O=C1O[C@H]([C@@H](O)CO)C(O)=C1O` [Vitamin C], the “TEAC (Trolox equivalent AO Capacity)” value is given as 0.76.

With Vitamin E, the “TEAC (Trolox equivalent AO Capacity)” value is on record as 0.13.

(Values after patent US10064804B2, “Polymeric nitrones and their use in personal care” (Dow Global Technologies LLC, priority 2014, dated 2018).)
